Assay: Loading capacity of filomicelles (PEG PPS) with other immunosuppressives used in lupus
Assay type: physicochemical
Details: drug per mg of filomicelles, FIG. 10
From the text: Transmission electron microscopy (TEM) images of loaded and unloaded FMs show no difference in morphology or structure, as shown in FIG. 3.

SMILES: Cn1cnc([N+](=O)[O-])c1Sc1ncnc2nc[nH]c12 [AZA, azathioprine]
- loading into filomicelles (PEG-PPS): ~400 µg/mg

Source: patent publication US11311485B2, “Self-assembled particles for targeted delivery of immunomodulators to treat autoimmunity and cancer” (UNIVERSITY OF MARYLAND, BALTIMORE COUNTY, priority 2018, dated 2022)
